{"source": "patent US7217810B2", "about": "“High level production of arbutin in green plants and microbes” (E. I. du Pont de Nemours and Company, priority 2003, dated 2007)", "key": {"UGT72B1 [1]": {"molecular_target": "UGT72B1 (Arabidopsis thaliana, UniProt Q9M156, E284K/I310V/T253S)", "experimental": "The enzyme was diluted to a final concentration of 0.115 ng/μL using 50 mM Tris HCl (pH 7.5), 1 mM MgCl2 and 2 mM DTT. […] Arbutin formation was quantitated by HPLC analysis as follows: 10 μL of analyte were separated on a Nova-Pak® C18 column (60 Å pore size, […]) using a gradient from 2% acetonitrile, 1.5% phosphoric acid (solvent A) to 48% acetonitrile, 1.5% phosphoric acid (solvent B). The following solvent gradient is applied: 0–5 min 100% solvent A; 5–20 min linear gradient of 0–100% solvent B; 21–25 min 100% solvent A. Arbutin was detected at 221 nm absorbance wavelength and quantitated using calibration curves generated with a commercially available standard of arbutin.\nThe data was fitted to the Michaelis-Menten equation. […] In this plot, an estimate of the Km is provided as the slope of the line representing the linear regression curve through the points and the Vmax by the intercept of the regression curve with the y axis.\n(§1) This turnover number was calculated using a molecular weight of the UGT72B1 enzyme of 53,015.33 Da calculated with the PEPIDESORT software package of the GCG."}, "arbutin synthase [2]": {"molecular_target": "T1, arbutin synthase (Rauvolfia serpentina, UniProt Q9AR73)", "details": "50° C., 1 mM hydroquinone; cited from earlier work"}, "arbutin synthase [3]": {"molecular_target": "T1, arbutin synthase", "details": "50° C., converted from cited Vmax using 51,793.01 Da", "experimental": "as §1"}, "O=C(O)c1ccc(O)cc1": {"tested_on": "O=C(O)c1ccc(O)cc1", "assay": "purified protein, by the assay type", "details": "other: pHBA 0.2 to 400 μM, fitted to Michaelis-Menten equation; 25.0 °C"}, "UGT72B1 [4]": {"molecular_target": "T2, UGT72B1 (Arabidopsis thaliana, UniProt Q9M156)", "T2 construct": "host or cells: E. coli (per the cited work)", "T2 sequence (Q9M156 1-480)": "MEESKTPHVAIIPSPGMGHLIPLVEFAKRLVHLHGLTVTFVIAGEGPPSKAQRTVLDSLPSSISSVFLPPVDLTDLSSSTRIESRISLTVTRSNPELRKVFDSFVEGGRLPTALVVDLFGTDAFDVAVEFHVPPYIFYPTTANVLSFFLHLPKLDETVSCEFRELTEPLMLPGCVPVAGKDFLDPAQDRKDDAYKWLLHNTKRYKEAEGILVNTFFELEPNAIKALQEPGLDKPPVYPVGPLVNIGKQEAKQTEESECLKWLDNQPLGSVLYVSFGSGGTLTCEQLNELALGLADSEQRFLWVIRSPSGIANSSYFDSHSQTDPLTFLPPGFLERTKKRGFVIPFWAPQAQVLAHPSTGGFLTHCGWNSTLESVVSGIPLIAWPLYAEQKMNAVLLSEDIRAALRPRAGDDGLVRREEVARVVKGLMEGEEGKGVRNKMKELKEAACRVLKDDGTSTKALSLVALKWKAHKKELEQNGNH", "details": "highest of the benzoic acid derivatives analyzed; cited from earlier work"}, "Oc1ccc(O)cc1": {"tested_on": "Oc1ccc(O)cc1", "assay": "purified protein, by the assay type", "details": "pH 7.5; 37.0 °C"}}, "data": [{"compound": "Oc1ccc(O)cc1", "note": "[hydroquinone, 1,4-dihydroxybenzene]", "values": [{"measurement": "apparent Km", "setting": "UGT72B1 [1]", "result": "~0.3", "unit": "µM"}, {"measurement": "hydroquinone concentration giving significant substrate inhibition", "setting": "UGT72B1 [1]; Michaelis-Menten plot, FIG. 5", "result": "greater than 100 μM"}, {"measurement": "Vmax with hydroquinone relative to Vmax with benzoic acid substrates", "setting": "UGT72B1 [1]; compared with Lim et al. values", "result": "~68", "unit": "fold"}, {"measurement": "apparent Vmax", "setting": "UGT72B1 [1]; hydroquinone as substrate, 20 mM UDPG, 37° C., Hofstee plot", "result": "~796", "unit": "pmol/sec/1 g"}, {"measurement": "turnover number (Kcat)", "setting": "UGT72B1 [1]; hydroquinone as substrate, 37° C.", "result": 42, "unit": "s⁻¹"}, {"measurement": "Vmax", "setting": "arbutin synthase [2]", "result": 26.32, "unit": "pkat/μg"}, {"measurement": "turnover number", "setting": "arbutin synthase [3]", "result": 1.4, "unit": "s⁻¹"}]}, {"compound": "pHBA 1-hydroxylase (Lodderomyces parapsilosis CDC317)", "values": [{"measurement": "Km", "setting": "O=C(O)c1ccc(O)cc1", "result": 0.31, "unit": "µM"}, {"measurement": "Vmax", "setting": "O=C(O)c1ccc(O)cc1", "result": 6.4, "unit": "µmol/min/mg"}]}, {"compound": "O=C(O)c1cc(O)ccc1O", "note": "[2,5-dihydroxybenzoic acid]", "values": [{"measurement": "specific activity", "setting": "UGT72B1 [4]", "result": 11.72, "unit": "pkat/μg protein"}]}, {"compound": "UGT72B1 (Arabidopsis thaliana; E284K/I310V/T253S)", "values": [{"measurement": "Km", "setting": "Oc1ccc(O)cc1", "result": 0.3, "unit": "µM"}]}]}
